US20230053540A1, “TREATMENT OF LIVER INJURY” (Massachusetts Institute of Technology, priority 2019, published 2023)

System: hepatocytes
Assay: Seq-Well scRNA-Seq of hepatocytes after APAP overdose (signature scores, DEG vs untreated)
Type: in vivo, mouse
Conditions: APAP vs UT, composite DEG

CC(=O)Nc1ccc(O)cc1 [APAP, acetaminophen]
Ndufs4 logFC: −0.3132 | Ndufs8 logFC: −0.3614 | Ndufv2 logFC: −0.3276 | Ndufv3 logFC: −0.3971 | Neat1 logFC: 0.6374 | Nedd4l logFC: 0.2812 | Nedd8 logFC: −0.3564 | Nfe2l1 logFC: 0.2703 | Nid1 logFC: 0.3426 | Nme1 logFC: −0.4329 | Nop10 logFC: −0.2919 | Nop58 logFC: 0.6634 | Nr0b2 logFC: −0.293 | Nr1d2 logFC: 0.4306 | Nr1i3 logFC: 0.4259 | Nr2f6 logFC: −0.3754 | Nrip1 logFC: 0.2729 | Oaf logFC: −0.7329 | Oat logFC: −1.225 | Orm1 logFC: 0.3651 | Osbpl1a logFC: 0.2728 | Osbpl9 logFC: 0.2788 | Ostc logFC: 0.2658 | Otc logFC: −0.299 | P4hb logFC: 0.4052 | Pabpc1 logFC: 0.4949 | Pacsin2 logFC: 0.3708 | Padi3 logFC: 0.2957 | Pak2 logFC: 0.2815 | Palld logFC: 0.3414 | Pank1 logFC: −0.3527 | Paqr9 logFC: −0.3323 | Pbld1 logFC: −0.4425 | Pcbd1 logFC: −0.6878 | Pcbp2 logFC: 0.3103 | Pck1 logFC: −0.6522 | Pdia3 logFC: 0.5938 | Pecr logFC: −0.3981 | Pex11a logFC: 0.3508 | Pgrmc1 logFC: 0.3502 | Phc2 logFC: 0.312 | Phf20l1 logFC: 0.3085 | Phlda1 logFC: 0.5492 | Pigr logFC: 0.3868 | Pipox logFC: 0.2725 | Pla2g7 logFC: 0.2823 | Plek logFC: 0.3089 | Plin2 logFC: 1.461 | Plin5 logFC: 0.3521 | Plk3 logFC: 0.4166 | Plscr1 logFC: 0.4445 | Pnkd logFC: −0.2928 | Pnpla7 logFC: −0.3016 | Pnpla8 logFC: 0.2956 | Pon1 logFC: −0.6858 | Por logFC: 0.336 | Ppara logFC: 0.3589 | Ppp1r12a logFC: 0.3563 | Prdx1 logFC: −0.5292 | Prdx4 logFC: −0.4176 | Prdx5 logFC: −0.2821 | Prkaa2 logFC: 0.2636 | Prodh2 logFC: 0.3453 | Prox1 logFC: 0.2663 | Proz logFC: 0.2632 | Prrc2c logFC: 0.4393 | Psat1 logFC: 0.3012 | Psen2 logFC: −0.9474 | Psmb1 logFC: −0.3585 | Psmb3 logFC: −0.3303 | Psmb6 logFC: −0.3194 | Psme1 logFC: −0.394 | Psme4 logFC: 0.2626 | Ptp4a1 logFC: 0.2627 | Ptpn2 logFC: 0.2734 | Ptprc logFC: 0.4165 | Ptprf logFC: 0.3071 | Purb logFC: 0.3525 | Pxk logFC: 0.2819 | Pxmp2 logFC: −0.3671 | Pzp logFC: 0.416 | Rarres1 logFC: −0.4556 | Rbm25 logFC: 0.4215 | Rcan1 logFC: 0.7073 | Rdh7 logFC: −0.4186 | Rdx logFC: 0.3736 | Reep3 logFC: 0.409 | Reep6 logFC: 0.5143 | Rell1 logFC: 0.5912 | Retnlg logFC: 0.3751 | Rexo2 logFC: −0.3263 | Rgn logFC: −1.573 | Rgs16 logFC: 0.3226 | Rlim logFC: 0.3102 | Rnase4 logFC: −1.049 | Rnaseh2c logFC: −0.3257 | Rnf13 logFC: 0.2553 | Rnf144a logFC: 0.313 | Romo1 logFC: −0.3359 | Rpl4 logFC: 0.2839 | Rpl13a logFC: −0.3815 | Rpl13 logFC: −0.2997 | Rpl14 logFC: −0.2776 | Rpl38 logFC: 0.2543 | Rplp0 logFC: −0.4309 | Rps3 logFC: −0.3493 | Rps8 logFC: −0.2746 | Rps9 logFC: −0.3718 | Rps10 logFC: −0.3369 | Rps15 logFC: −0.4552 | Rps18 logFC: −0.4885 | Rps21 logFC: −0.3645 | Rps27l logFC: −0.8659 | Rsp14 logFC: −0.4021 | Saa2 logFC: 0.9645 | Sardh logFC: 0.2692 | Sbno1 logFC: 0.3671 | Sc4mol logFC: −0.3262 | Scaf11 logFC: 0.3598 | Scd1 logFC: 0.7267 | Sco2 logFC: −0.2929 | Scp2 logFC: −0.5191 | Sdhb logFC: −0.2896 | Sdhc logFC: 0.3944 | Sdr9c7 logFC: −0.26 | Sdsl logFC: 0.2593 | Sec14l2 logFC: −0.7897 | Sec31a logFC: 0.263 | Sec61b logFC: −0.2903 | Sec62 logFC: 0.2516 | Sel1l logFC: 0.336 | Selk logFC: −0.3383 | Serpina1b logFC: −0.3018 | Serpina1c logFC: −0.4026 | Serpina3m logFC: 0.9674 | Serpina3n logFC: 0.8483 | Serpina10 logFC: 0.565 | Serpina12 logFC: −0.4534 | Serpinf1 logFC: 0.3196 | Serping1 logFC: 0.4128 | Sf1 logFC: 0.3023 | Sfpq logFC: 0.394 | Sgk1 logFC: 0.2843 | Sh3bgrl logFC: 0.2513 | Sh3glb1 logFC: 0.326 | Shb logFC: 0.3152 | Shmt1 logFC: −0.3932 | Sirt3 logFC: −0.346 | Slc4a4 logFC: 0.4203 | Slc7a2 logFC: 0.3526 | Slc10a1 logFC: −0.3258 | Slc16a6 logFC: 0.9114 | Slc22a1 logFC: −0.7979 | Slc22a30 logFC: −0.3746 | Slc25a10 logFC: 0.3433 | Slc25a13 logFC: 0.2855 | Slc25a20 logFC: 0.38 | Slc25a47 logFC: 0.5027 | Slc27a2 logFC: 0.3853 | Slc27a5 logFC: 0.337 | Slc38a10 logFC: 0.2855 | Slc39a14 logFC: 1.013 | Slc40a1 logFC: 0.467 | Slco1b2 logFC: −1.087 | Slirp logFC: −0.3085 | Smap2 logFC: 0.3489 | Smdt1 logFC: −0.3673 | Smg1 logFC: 0.335 | Snord13 logFC: 0.2611 | Snx10 logFC: 0.2856 | Sod1 logFC: −0.4393 | Sord logFC: −0.3836 | Spp2 logFC: −0.3821 | Sptbn1 logFC: 0.4227 | Srebf1 logFC: 0.2762 | Srgn logFC: 0.9341 | Srp72 logFC: 0.3107 | Srpr logFC: 0.3052 | Srsf11 logFC: 0.4012 | Ssr3 logFC: 0.5218 | St3gal5 logFC: 0.6076 | Stbd1 logFC: −0.2732 | Steap4 logFC: 0.476 | Stk17b logFC: 0.2911 | Stom logFC: 0.3232 | Stt3b logFC: 0.3194 | Suco logFC: 0.251 | Suds3 logFC: 0.2539 | Sult1d1 logFC: 0.4599 | Supt6 logFC: 0.2913 | Surf4 logFC: 0.2586 | Syncrip logFC: 0.2748 | Tars logFC: 0.4921 | Tbl1xr1 logFC: 0.3075 | Tcea3 logFC: −0.355 | Tceb2 logFC: −0.3207 | Tfpi2 logFC: −0.3663 | Tgm2 logFC: 0.3993 | Tgoln1 logFC: 0.3883 | Timm8b logFC: −0.3936 | Timm13 logFC: −0.433 | Tjp1 logFC: 0.2862
